# ChEMBL document CHEMBL6087389, “Hydrazone-Functionalized trans-A2B-Corroles: Effective Synergy in Photodynamic Therapy of Lung Cancer” (J Med Chem, 2024)
# pIC50: −log10 of the molar value. Calls of active or inactive are those of the source. The calls are words filed in the database; no cut-off is given here.
# What was measured:
# NCI-H1299 [1] = experiment: Induction of apoptosis in human NCI-H1299 cells assessed as late apoptotic/necrotic cells at 500 nM preincubated for 24 hrs followed by irradiated with 7.5 to 10 mW/cm^-2 red light for 24 hrs by Annexin V and propidium iodide staining based flow cytometry relative to control; type: functional; details: time 48 hrs
# A549 [2] = experiment: Induction of apoptosis in human A549 cells assessed as reduction in viable cells at 100 nM preincubated for 24 hrs followed by irradiated with 7.5 to 10 mW/cm^-2 red light for 24 hrs by Annexin V and propidium iodide staining based flow cytometry relative to control; type: functional; details: time 48 hrs
# A549 [3] = experiment: Dark toxicity against human A549 cells assessed as reduction in metabolic activity at <1 uM incubated for 4 hrs by MTT assay; type: cell-based; details: a549, 4 h
# NCI-H1299 [4] = experiment: Induction of apoptosis in human NCI-H1299 cells assessed as early apoptotic cells at 500 nM preincubated for 24 hrs followed by irradiated with 7.5 to 10 mW/cm^-2 red light for 24 hrs by Annexin V and propidium iodide staining based flow cytometry relative to control; type: functional; details: time 48 hrs
# NCI-H1299 [5] = experiment: Induction of apoptosis in human NCI-H1299 cells assessed as appearance of necrosis at 100 to 250 nM preincubated for 24 hrs followed by irradiated with 7.5 to 10 mW/cm^-2 red light for 24 hr by May-Grunwald/Giemsa staining by light microscopic analysis; type: functional, cell-based; details: dose 100-250 nM, time 48.0 hrs
# [6] = Fluorescence property of the compound in DMSO assessed as fluorescence quantum yield by photoluminescence quantum yield spectrometer; type: physicochemical
# [7] = Phototoxicity against human A549 cells assessed as reduction in cell viability preincubated for 24 hrs followed by 7.5 to 10 mW/cm^-2 red light irradiation and measured after 24 hrs by MTT assay; type: functional, cell-based; details: A549, light or radiation study
# NCI-H1299 [8] = experiment: Induction of apoptosis in human NCI-H1299 cells assessed as early apoptotic cells at 100 nM preincubated for 24 hrs followed by irradiated with 7.5 to 10 mW/cm^-2 red light for 24 hrs by Annexin V and propidium iodide staining based flow cytometry relative to control; type: functional; details: time 48 hrs
# [9] = Fluorescence property of the compound in THF assessed as fluorescence quantum yield by photoluminescence quantum yield spectrometer; type: physicochemical
# [10] = Induction of singlet oxygen generation in THF assessed as singlet oxygen quantum yield by comparative photoluminescence method; type: functional
# NCI-H1299 [11] = experiment: Induction of apoptosis in human NCI-H1299 cells assessed as late apoptotic/necrotic cells at 100 nM preincubated for 24 hrs followed by irradiated with 7.5 to 10 mW/cm^-2 red light for 24 hrs by Annexin V and propidium iodide staining based flow cytometry relative to control; type: functional; details: time 48 hrs
# A549 [12] = experiment: Dark toxicity against human A549 cells assessed as reduction in metabolic activity at 10 uM incubated for 4 hrs by MTT assay; type: cell-based; details: a549, 4 h
# A549 [13] = experiment: Induction of apoptosis in human A549 cells assessed as late apoptotic/necrotic cells at 500 nM preincubated for 24 hrs followed by irradiated with 7.5 to 10 mW/cm^-2 red light for 24 hrs by Annexin V and propidium iodide staining based flow cytometry relative to control; type: functional; details: time 48 hrs
# NCI-H1299 [14] = experiment: Dark toxicity against human NCI-H1299 cells assessed as reduction in metabolic activity at 10 uM incubated for 4 hrs by MTT assay; type: cell-based; set-up: scale not given: the % may be the effect or the level left; details: nci-h1299, 4 h
# A549 [15] = experiment: Induction of apoptosis in human A549 cells assessed as late apoptotic/necrotic cells at 100 to 500 nM preincubated for 24 hrs followed by irradiated with 7.5 to 10 mW/cm^-2 red light for 24 hrs by Annexin V and propidium iodide staining based flow cytometry relative to control; type: functional; details: dose 100-500 nM, time 48 hrs
# NCI-H1299 [16] = experiment: Induction of apoptosis in human NCI-H1299 cells assessed as reduction in viability at 100 to 500 nM preincubated for 24 hrs followed by irradiated with 7.5 to 10 mW/cm^-2 red light for 24 hrs by Annexin V and propidium iodide staining based flow cytometry relative to control; type: functional; details: dose 100-500 nM, time 48 hrs
# NCI-H1299 [17] = experiment: Dark toxicity against human NCI-H1299 cells assessed as reduction in metabolic activity at <1 uM incubated for 4 hrs by MTT assay; type: cell-based; details: nci-h1299, 4 h
# A549 [18] = experiment: Induction of apoptosis in human A549 cells assessed as viable cells at 500 nM preincubated for 24 hrs followed by irradiated with 7.5 to 10 mW/cm^-2 red light for 24 hrs by Annexin V and propidium iodide staining based flow cytometry relative to control; type: functional; details: A549, light or radiation study, time 48 hrs, read-out: Activity
# A549 [19] = experiment: Induction of apoptosis in human A549 cells assessed as early apoptotic cells at 100 to 500 nM preincubated for 24 hrs followed by irradiated with 7.5 to 10 mW/cm^-2 red light for 24 hrs by Annexin V and propidium iodide staining based flow cytometry relative to control; type: functional; details: dose 100-500 nM, time 48 hrs
# [20] = Phototoxicity against human NCI-H1299 cells assessed as reduction in cell viability preincubated for 24 hrs followed by 7.5 to 10 mW/cm^-2 red light irradiation and measured after 24 hrs by MTT assay; type: functional, cell-based; details: NCI-H1299, light or radiation study
# Mitochondrial membrane [21] = experiment: Induction of mitochondrial membrane depolarization in human NCI-H1299 cells assessed as increase in monomer to aggregate ratio at 100 nM preincubated for 15 mins irradiated with 7.5 to 10 mW/cm^-2 red light by JC-1 fluorescent probe based flow cytometric analysis (reference value: 1.0+/-0.00); type: cell membranes
# A549 [22] = experiment: Induction of apoptosis in human A549 cells assessed as necrotic cells at 100 nM preincubated for 24 hrs followed by irradiated with 7.5 to 10 mW/cm^-2 red light for 24 hrs by Annexin V and propidium iodide staining based flow cytometry relative to control; type: functional; details: time 48 hrs
# Mitochondrial membrane [23] = experiment: Induction of mitochondrial membrane depolarization in human NCI-H1299 cells assessed as increase in monomer to aggregate ratio at 250 nM preincubated for 15 mins irradiated with 7.5 to 10 mW/cm^-2 red light by JC-1 fluorescent probe based flow cytometric analysis (reference value: 1.0+/-0.00); type: cell membranes
# Mitochondrial membrane [24] = experiment: Induction of mitochondrial membrane depolarization in human A549 cells assessed as increase in monomer to aggregate ratio at 250 nM preincubated for 15 mins irradiated with 7.5 to 10 mW/cm^-2 red light by JC-1 fluorescent probe based flow cytometric analysis (reference value: 24.7+/-6.9); type: cell membranes
# A549 [25] = experiment: Induction of apoptosis in human A549 cells assessed as increase in apoptotic cells at 100 nM preincubated for 24 hrs followed by irradiated with 7.5 to 10 mW/cm^-2 red light for 24 hrs by Annexin V and propidium iodide staining based flow cytometry relative to control; type: functional; details: time 48 hrs
# A549 [26] = experiment: Induction of superoxide anion production in human A549 cells irradiated with 7.5 to 10 mW/cm^-2 red light for 24 hrs at 100 to 250 nM incubated for 2 hrs by DHE and DCFH2-DA staining based fluorimetric analysis; type: functional, cell-based; details: dose 100-250 nM
# Mitochondrial membrane [27] = experiment: Induction of mitochondrial membrane depolarization in human A549 cells assessed as increase in monomer to aggregate ratio at 100 nM preincubated for 15 mins irradiated with 7.5 to 10 mW/cm^-2 red light by JC-1 fluorescent probe based flow cytometric analysis (reference value: 24.7+/-6.9); type: cell membranes
# A549 [28] = experiment: Induction of apoptosis in human A549 cells assessed as late apoptotic cells at 500 nM preincubated for 24 hrs followed by irradiated with 7.5 to 10 mW/cm^-2 red light for 24 hrs by Annexin V and propidium iodide staining based flow cytometry relative to control; type: functional; details: time 48 hrs
# A549 [29] = experiment: Photocytotoxicity in human A549 cells assessed as metabolic activity in presence of sodium azide measured preincubated for 24 hrs followed by irradiated with 7.5 to 10 mW/cm^-2 red light for 24 hrs by MTT assay; type: functional, cell-based; details: A549, light or radiation study
# NCI-H1299 [30] = experiment: Induction of superoxide anion production in human NCI-H1299 cells irradiated with 7.5 to 10 mW/cm^-2 red light for 24 hrs at 100 to 250 nM incubated for 2 hrs by DHE and DCFH2-DA staining based fluorimetric analysis; type: functional, cell-based; details: dose 100-250 nM
# A549 [31] = experiment: Induction of apoptosis in human A549 cells assessed as necrotic cells at 500 nM preincubated for 24 hrs followed by irradiated with 7.5 to 10 mW/cm^-2 red light for 24 hrs by Annexin V and propidium iodide staining based flow cytometry relative to control; type: functional; details: time 48 hrs
# A549 [32] = experiment: Reduction in hydrogen peroxide production in human A549 cells irradiated with 7.5 to 10 mW/cm^-2 red light for 24 hrs at 100 to 250 nM measured after 2 hrs by DHE and DCFH2-DA staining based fluorimetric analysis; type: functional, cell-based; details: dose 100-250 nM
# NCI-H1299 [33] = experiment: Reduction in hydrogen peroxide production in human NCI-H1299 cells irradiated with 7.5 to 10 mW/cm^-2 red light for 24 hrs at 0 to 250 nM incubated for 2 hrs by DHE and DCFH2-DA staining based fluorimetric analysis; type: functional, cell-based; details: dose 0-250 nM
# A549 [34] = experiment: Induction of apoptosis in human A549 cells assessed as reduction in viable cells at 500 nM preincubated for 24 hrs followed by irradiated with 7.5 to 10 mW/cm^-2 red light for 24 hrs by Annexin V and propidium iodide staining based flow cytometry relative to control; type: functional; details: time 48 hrs
# A549 [35] = experiment: Induction of apoptosis in human A549 cells assessed as late apoptotic cells at 100 nM preincubated for 24 hrs followed by irradiated with 7.5 to 10 mW/cm^-2 red light for 24 hrs by Annexin V and propidium iodide staining based flow cytometry relative to control; type: functional; details: time 48 hrs
# A549 [36] = experiment: Induction of apoptosis in human A549 cells assessed as increase in apoptotic cells at 500 nM preincubated for 24 hrs followed by irradiated with 7.5 to 10 mW/cm^-2 red light for 24 hrs by Annexin V and propidium iodide staining based flow cytometry relative to control; type: functional; details: time 48 hrs
Compound,Activity (NCI-H1299 [1]),Activity (A549 [2]),Activity (A549 [3]),Activity (NCI-H1299 [4]),Activity (NCI-H1299 [5]),Activity [6],pIC50 [7],Activity (NCI-H1299 [8]),Activity [9],Activity [10],Activity (NCI-H1299 [11]),Activity (A549 [12]),Activity (NCI-H1299 [14]),Activity (NCI-H1299 [16]),Activity (NCI-H1299 [17]),pIC50 [20],other results
C/C(=N\NS(=O)(=O)c1ccc(C)cc1)c1c2nc(c(-c3ccccc3)c3ccc([nH]3)c3ccc([nH]3)c(-c3ccccc3)c3ccc1[nH]3)C=C2,75.5%,48%,Non-toxic,19.8%,Active,0.282,7.00,12.7%,0.114,0.26,23.2%,Non-toxic,73.8%,>=75%,Non-toxic,7.28,Activity (A549 [13]): 92.7%; Activity (A549 [15]): 24.6%; viability at 0.5 µM (A549 [18]): 2%; Activity (A549 [19]): 16.9%
C/C(=N/NC(=O)OC(C)(C)C)c1c2nc(c(-c3ccccc3)c3ccc([nH]3)c3ccc([nH]3)c(-c3ccccc3)c3ccc1[nH]3)C=C2,28.8%,20.8%,Non-toxic,69%,Active,0.267,7.02,20.1%,0.14,0.39,57.9%,Non-toxic,Non-toxic,>=75%,Non-toxic,7.60,Activity (Mitochondrial membrane [21]): 1.7; Activity (A549 [22]): 22.8%; Activity (Mitochondrial membrane [23]): 4; Activity (Mitochondrial membrane [24]): 47.7; Activity (A549 [25]): 21%; Activity (A549 [26]): Active; Activity (Mitochondrial membrane [27]): 39.7; Activity (A549 [28]): 38%; pIC50 (A549 [29]): 6.43; Activity (NCI-H1299 [30]): Active; Activity (A549 [31]): 26.5%; Activity (A549 [32]): Active; Activity (NCI-H1299 [33]): Active; Activity (A549 [34]): 18%; Activity (A549 [35]): 35.5%; Activity (A549 [36]): 17.5%
